The record followed here is patent US8785728B2, “AAD-12 event 1606 and related transgenic soybean lines” (priority 2010, dated 2014).

Series [1] concerns soybean event pDAB4472-1606. The class given is in vivo, Glycine max. As to conditions: 2,4-D dimethylamine salt 2240 g ae/ha applied at V3 and R2; adjusted mean. An excerpt:
The agronomic characteristics of soybean event pDAB4472-1606 were compared to an isogenic non-transformed soybean line across diverse geographical locations during the 2009 growing season. Data were collected and analyzed for the following agronomic characteristics: • 1.) Stand count: The number of plants in a representative one meter section of each row was counted. Taking data at the VC-V2 growth stage; • 2.) Emergence: Calculated by dividing Stand count (above) by number of seeds planted in a one meter section; • 3.) Seedling Vigor at V1-V3: Vigor is an overall estimate of the health of the plant. […] Recorded in the number of days from planting date; • 8.) Stand count at R2: The number of plants in a representative one meter section of row were counted. Note taken at the R2 growth stage; • 9.) Overall visual crop injury, chlorosis and necrosis at 1 day after R2 chemical application; • 10.) Overall visual crop injury, chlorosis and necrosis at 7 days after R2 chemical application; • 11.) Overall visual crop injury, chlorosis and necrosis at 14 days after R2 chemical application. • 12.) Disease incidence (if any) at R6 growth stage: Recorded the percentage of plants affected by the disease. 0-100% scale; • 13.) Insect damage (if any) at R6 growth stage: Recorded the percentage of plant tissue in the plot damaged by insects. 0-100% scale; • 14.) Plant height at senescence: Recorded the average height of the plants in each plot. Measured plants from the soil surface to the tip after leaves had fallen. Recorded measurement in centimeters; • 15.) Days to maturity. Recorded when 95% of the pods in a plot had reached their dry down color and were at ˜15% moisture or less. Recorded in days from planting; • 16.) Lodging: Recorded lodging at harvest time. […] (All plants in a plot standing straight=1 and all plants in the plot flat=5); • 17.) Shattering: Recorded shattering at harvest time. Recorded as an estimate of number of pods shattered. […] Recorded seed weight and moisture. […]

Series [2] deals with soybean event pDAB4472-1606. Put plainly: Field expression level study with 2X spray rate of 2,4-D. The class given is in vivo, Glycine max. As to conditions: 2X spray rate (2,240 gm ae/ha of 2,4-D); at any point of the study. Here is the method: Field expression level studies at various plant stages were performed on soybean event pDAB4472-1606 at pre V3, post V3, pre R2, and post R2. Expression values were similar for all the sprayed treatments as well as for the plots sprayed and unsprayed with 2,4-D herbicide. […] Average expression across all lineages in pre V3 plant stage was 200 ug/cm^2. After spraying 2,4-D the expression remained stable averaging […] across lineages. By the time the soybeans reached pre R2 the average expression had dropped slightly to an average of 250 ug/cm^2. After spraying 2,4-D the expression post R2 had remained at the previous average of 250 ug/cm^2.

Consider `O=C(O)COc1ccc(Cl)cc1Cl` [2,4-D, 2,4-dichlorophenoxyacetic acid], for which, in series [1], the “Overall crop injury 1 day after V3 spray” value is given as 0.3%, the “Overall crop injury 7 days after V3 spray” value worked out at 2.1% and the “Overall crop injury 14 days after V3 spray” value is recorded as 3.3%. The “Injury on the plants” value in series [2] is “no significant injury was observed”.
